The record followed here is patent US8198438B2, “Pyrrolotriazine kinase inhibitors” (Bristol-Myers Squibb Company, priority 2007, dated 2012).

Assay type in all cases: biochemical
Test [1] addresses GST-Met (Homo sapiens, UniProt P08581). The test is described as follows: Met Kinase Assay. The conditions noted are these: 1 μM ATP; 33P γ-ATP, poly(Glu/Tyr); 1 h at 30° C. The protocol: Kinase reactions consisted of 0.75 ng of baculovirus expressed GST-Met, 3 ug poly(Glu/Tyr) (Sigma), 0.12 μCi 33P γ-ATP, 1 μM ATP in 30 μl kinase buffer (20 mm TRIS-C1, 5 mM MnCl2, 0.1 mg/ml BSA, 0.5 mM DTT). Reactions were incubated for 1 h at 30° C. and stopped by the addition of cold trichloroacetic acid (TCA) to a final concentration 8%. TCA precipitates were collected onto GF/C unifilter plates using a Filtermate universal harvester and the filters were quantitated using a TopCount 96-well liquid scintillation counter. Dose response curves were generated to determine the concentration required to inhibit 50% of kinase activity (IC50). Compounds were dissolved at 10 mM in dimethylsulfoxide (DMSO) and evaluated at seven concentrations, each in triplicate.

Test [2] has as its target CDK2E (Homo sapiens, UniProt P24941). Put plainly: CDK 2/Cyclin E Kinase Assay. The conditions noted are these: ATP 30 μM; CDK2E 0.2 nM; Caliper LabChip 3000. As to the method:
A. CDK 2/Cyclin E Kinase Assay
(§1) The assays were performed in U-bottom 384-well plates. The final assay volume was 30 μl prepared from 15 μl additions of enzyme and substrates (fluoresceinated CDK2E substrate peptide and ATP) and test compounds in assay buffer (100 mM HEPES pH 7.4, 10 mM MgCl2, 0.015% Brij35 and 4 mM DTT). The reaction was initiated by the combination of bacterially expressed, CDK2E with substrates and test compounds. The reaction was incubated at room temperature for 60 min. and terminated by adding 30 μl of 35 mM EDTA to each sample. The reaction mixture was analyzed on the Caliper LabChip 3000 by electrophoretic separation of the fluorescent substrate and phosphorylated product Inhibition data were calculated by comparison to no enzyme control reactions for 100% inhibition and vehicle-only reactions for 0% inhibition. The final concentration of reagents in the assays is ATP, 30 μM; FL-peptide, 1.5 μM; CDK2E, 0.2 nM; and DMSO, 1.6%. Dose response curves were generated to determine the concentration required inhibiting 50% of kinase activity (IC50). Compounds were dissolved at 10 mM in dimethylsulfoxide (DMSO) and evaluated at eleven concentrations, each in duplicate. IC50 values were derived by non-linear regression analysis.

Test [3] concerns the target T1, FLT3 (Homo sapiens, UniProt P36888).
T1 sequence (P36888 27-993): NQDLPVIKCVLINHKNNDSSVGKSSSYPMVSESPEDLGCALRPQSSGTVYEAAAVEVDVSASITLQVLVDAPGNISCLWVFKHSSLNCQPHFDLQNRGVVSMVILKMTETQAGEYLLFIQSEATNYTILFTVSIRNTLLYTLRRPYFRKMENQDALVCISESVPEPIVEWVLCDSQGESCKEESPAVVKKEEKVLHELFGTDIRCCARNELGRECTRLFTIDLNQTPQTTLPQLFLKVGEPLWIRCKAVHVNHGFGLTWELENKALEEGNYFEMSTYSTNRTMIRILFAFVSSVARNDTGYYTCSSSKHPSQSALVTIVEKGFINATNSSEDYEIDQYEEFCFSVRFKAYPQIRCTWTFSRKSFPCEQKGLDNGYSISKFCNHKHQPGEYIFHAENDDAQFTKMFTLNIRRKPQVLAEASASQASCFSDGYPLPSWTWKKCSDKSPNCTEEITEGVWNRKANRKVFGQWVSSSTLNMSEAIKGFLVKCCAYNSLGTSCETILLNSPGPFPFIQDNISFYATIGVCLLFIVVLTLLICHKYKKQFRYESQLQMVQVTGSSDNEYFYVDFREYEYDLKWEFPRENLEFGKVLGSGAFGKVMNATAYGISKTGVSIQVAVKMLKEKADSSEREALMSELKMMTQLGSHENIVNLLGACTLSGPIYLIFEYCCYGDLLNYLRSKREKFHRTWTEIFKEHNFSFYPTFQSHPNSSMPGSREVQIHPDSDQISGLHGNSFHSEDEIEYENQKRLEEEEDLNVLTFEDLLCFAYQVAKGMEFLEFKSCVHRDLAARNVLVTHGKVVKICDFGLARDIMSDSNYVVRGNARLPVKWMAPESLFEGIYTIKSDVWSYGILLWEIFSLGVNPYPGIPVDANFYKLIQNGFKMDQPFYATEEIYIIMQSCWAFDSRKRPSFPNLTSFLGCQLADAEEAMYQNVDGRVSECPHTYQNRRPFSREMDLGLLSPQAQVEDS
The test is described as follows: FLT3 kinase assay. The note with it: ATP 200 μM; FLT3 4.5 nM; Caliper LabChip 3000. The protocol:
as §1, with “FLT3” for “CDK2E”, “FLT3” for “bacterially expressed, CDK2E”, “product.” for “product”, “200 μM,” for “30 μM;”, “FLT3, 4.5 nM” for “CDK2E, 0.2 nM;”

The target of test [4] is T2, GSK3-β (Homo sapiens, UniProt P49841).
T2 construct: His
T2 sequence (P49841 whole entry): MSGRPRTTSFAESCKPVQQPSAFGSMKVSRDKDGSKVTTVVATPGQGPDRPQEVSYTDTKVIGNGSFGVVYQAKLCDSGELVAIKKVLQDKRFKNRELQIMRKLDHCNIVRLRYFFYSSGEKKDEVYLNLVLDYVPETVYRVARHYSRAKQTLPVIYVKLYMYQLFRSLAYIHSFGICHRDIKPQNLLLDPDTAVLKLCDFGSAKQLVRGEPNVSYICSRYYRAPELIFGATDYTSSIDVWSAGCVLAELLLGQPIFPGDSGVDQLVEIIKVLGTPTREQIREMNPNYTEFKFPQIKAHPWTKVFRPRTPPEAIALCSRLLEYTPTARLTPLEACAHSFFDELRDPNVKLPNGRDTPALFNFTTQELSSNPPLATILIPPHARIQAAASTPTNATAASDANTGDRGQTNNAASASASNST
Put plainly: GSK3-β kinase assay. The note with it: ATP 30 μM; His-GSK3B 2.4 nM; Caliper LabChip 3000; read-out: GSK-3β IC50. The protocol: (§2) The assays were performed in U-bottom 384-well plates. The final assay volume was 30 μl prepared from 15 μl additions of enzyme and substrates (fluoresceinated peptide FL-GSK substrate and ATP) and test compounds in assay buffer (100 mM HEPES pH 7.2, 10 mM MgCl2, 0.015% Brij35, 25 mM β-glycerolphosphate and 4 mM DTT). The reaction was initiated by the combination of GSK3-β with substrates and test compounds. The reaction was incubated at room temperature for 60 min. and terminated by adding 30 μl of 35 mM EDTA to each sample. The reaction mixture was analyzed on the Caliper LabChip 3000 (Caliper, Hopkinton, Mass.) by electrophoretic separation of the fluorescent substrate and phosphorylated product Inhibition data were calculated by comparison to no enzyme control reactions for 100% inhibition and vehicle-only reactions for 0% inhibition. The final concentration of reagents in the assays is ATP, 30 μM; FL-GSK substrate, 1.5 μM; His-GSK3B, 2.4 nM; and DMSO, 1.6%.

Test [5] concerns the target IGF1-receptor (Homo sapiens, UniProt P08069). Put plainly: IGF1-Receptor Tyrosine Kinase Assay. The conditions noted are these: ATP 25 μM; IGF1-Receptor 14 nM; Caliper LabChip 3000; read-out: IGF1R IC50. The protocol: D. IGF1-Receptor Tyrosine Kinase Assay
The assays were performed in U-bottom 384-well plates. The final assay volume was 30 μl prepared from 15 μl additions of enzyme and substrates (fluoresceinated IGF1R substrate peptide and ATP) and test compounds in assay buffer (100 mM HEPES pH 7.4, 10 mM MnCl2, 0.015% Brij35 and 4 mM DTT). The reaction was initiated by the combination of IGF1-receptor with substrates and test compounds. The reaction was incubated at room temperature for 60 min. and terminated by adding 30 μl of 35 mM EDTA to each sample. The reaction mixture was analyzed on the Caliper LabChip 3000 by electrophoretic separation of the fluorescent substrate and phosphorylated product. Inhibition data were calculated by comparison to no enzyme control reactions for 100% inhibition and vehicle-only reactions for 0% inhibition. The final concentration of reagents in the assays is ATP, 25 μM; FL-peptide, 1.5 μM; IGF1-Receptor, 14 nM; and DMSO, 1.6%. Dose response curves were generated to determine the concentration required inhibiting 50% of kinase activity (IC50). Compounds were dissolved at 10 mM in dimethylsulfoxide (DMSO) and evaluated at eleven concentrations, each in duplicate. IC50 values were derived by non-linear regression analysis

For test [6], the target named is JAK2 (Homo sapiens, UniProt O60674). Put plainly: JAK2 kinase assay. The conditions noted are these: ATP 30 μM; activated JAK2; Caliper LabChip 3000. The protocol:
as §2, with “FL-JAK2” for “FL-GSK”, “activated JAK2” for “GSK3-β”, “product.” for “product”, “FL-JAK2 peptide,” for “FL-GSK substrate,”, “[…], 2.6” for “His-GSK3B, 2.4”

Chain of IGF1-receptor (P08069 31-1367): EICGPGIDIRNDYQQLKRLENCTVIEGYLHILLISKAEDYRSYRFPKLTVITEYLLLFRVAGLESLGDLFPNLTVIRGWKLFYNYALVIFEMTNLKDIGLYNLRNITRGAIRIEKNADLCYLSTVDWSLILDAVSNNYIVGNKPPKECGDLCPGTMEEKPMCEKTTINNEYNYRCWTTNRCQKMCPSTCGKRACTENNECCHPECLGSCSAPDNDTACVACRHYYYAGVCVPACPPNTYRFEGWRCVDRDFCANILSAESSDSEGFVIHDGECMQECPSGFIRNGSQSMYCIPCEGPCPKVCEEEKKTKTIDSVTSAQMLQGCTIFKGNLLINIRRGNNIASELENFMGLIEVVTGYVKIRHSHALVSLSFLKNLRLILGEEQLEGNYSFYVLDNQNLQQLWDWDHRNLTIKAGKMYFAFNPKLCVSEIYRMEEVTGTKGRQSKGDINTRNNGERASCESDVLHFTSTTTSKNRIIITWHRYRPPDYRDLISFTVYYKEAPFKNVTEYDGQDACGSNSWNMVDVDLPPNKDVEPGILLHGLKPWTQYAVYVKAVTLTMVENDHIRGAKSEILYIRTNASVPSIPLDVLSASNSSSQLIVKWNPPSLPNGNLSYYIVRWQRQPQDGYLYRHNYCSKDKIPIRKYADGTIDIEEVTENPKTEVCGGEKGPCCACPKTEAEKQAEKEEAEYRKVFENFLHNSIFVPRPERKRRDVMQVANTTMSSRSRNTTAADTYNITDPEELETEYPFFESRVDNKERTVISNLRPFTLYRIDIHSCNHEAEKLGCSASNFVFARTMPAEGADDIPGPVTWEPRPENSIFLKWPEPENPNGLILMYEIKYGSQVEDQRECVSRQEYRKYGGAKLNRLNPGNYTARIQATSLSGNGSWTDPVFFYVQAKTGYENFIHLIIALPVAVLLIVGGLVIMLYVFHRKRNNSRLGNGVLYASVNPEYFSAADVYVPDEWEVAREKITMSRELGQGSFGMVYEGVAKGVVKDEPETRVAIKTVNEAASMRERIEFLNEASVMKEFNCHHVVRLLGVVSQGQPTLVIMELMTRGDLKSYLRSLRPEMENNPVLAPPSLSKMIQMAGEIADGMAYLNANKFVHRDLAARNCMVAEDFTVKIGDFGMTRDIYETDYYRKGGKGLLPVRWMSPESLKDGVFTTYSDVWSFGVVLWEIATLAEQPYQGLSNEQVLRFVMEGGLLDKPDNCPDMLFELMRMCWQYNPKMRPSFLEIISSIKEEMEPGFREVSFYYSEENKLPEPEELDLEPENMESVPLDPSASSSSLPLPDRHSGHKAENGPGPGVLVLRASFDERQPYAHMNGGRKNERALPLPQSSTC
Chain of GST-Met (P08581 25-1390): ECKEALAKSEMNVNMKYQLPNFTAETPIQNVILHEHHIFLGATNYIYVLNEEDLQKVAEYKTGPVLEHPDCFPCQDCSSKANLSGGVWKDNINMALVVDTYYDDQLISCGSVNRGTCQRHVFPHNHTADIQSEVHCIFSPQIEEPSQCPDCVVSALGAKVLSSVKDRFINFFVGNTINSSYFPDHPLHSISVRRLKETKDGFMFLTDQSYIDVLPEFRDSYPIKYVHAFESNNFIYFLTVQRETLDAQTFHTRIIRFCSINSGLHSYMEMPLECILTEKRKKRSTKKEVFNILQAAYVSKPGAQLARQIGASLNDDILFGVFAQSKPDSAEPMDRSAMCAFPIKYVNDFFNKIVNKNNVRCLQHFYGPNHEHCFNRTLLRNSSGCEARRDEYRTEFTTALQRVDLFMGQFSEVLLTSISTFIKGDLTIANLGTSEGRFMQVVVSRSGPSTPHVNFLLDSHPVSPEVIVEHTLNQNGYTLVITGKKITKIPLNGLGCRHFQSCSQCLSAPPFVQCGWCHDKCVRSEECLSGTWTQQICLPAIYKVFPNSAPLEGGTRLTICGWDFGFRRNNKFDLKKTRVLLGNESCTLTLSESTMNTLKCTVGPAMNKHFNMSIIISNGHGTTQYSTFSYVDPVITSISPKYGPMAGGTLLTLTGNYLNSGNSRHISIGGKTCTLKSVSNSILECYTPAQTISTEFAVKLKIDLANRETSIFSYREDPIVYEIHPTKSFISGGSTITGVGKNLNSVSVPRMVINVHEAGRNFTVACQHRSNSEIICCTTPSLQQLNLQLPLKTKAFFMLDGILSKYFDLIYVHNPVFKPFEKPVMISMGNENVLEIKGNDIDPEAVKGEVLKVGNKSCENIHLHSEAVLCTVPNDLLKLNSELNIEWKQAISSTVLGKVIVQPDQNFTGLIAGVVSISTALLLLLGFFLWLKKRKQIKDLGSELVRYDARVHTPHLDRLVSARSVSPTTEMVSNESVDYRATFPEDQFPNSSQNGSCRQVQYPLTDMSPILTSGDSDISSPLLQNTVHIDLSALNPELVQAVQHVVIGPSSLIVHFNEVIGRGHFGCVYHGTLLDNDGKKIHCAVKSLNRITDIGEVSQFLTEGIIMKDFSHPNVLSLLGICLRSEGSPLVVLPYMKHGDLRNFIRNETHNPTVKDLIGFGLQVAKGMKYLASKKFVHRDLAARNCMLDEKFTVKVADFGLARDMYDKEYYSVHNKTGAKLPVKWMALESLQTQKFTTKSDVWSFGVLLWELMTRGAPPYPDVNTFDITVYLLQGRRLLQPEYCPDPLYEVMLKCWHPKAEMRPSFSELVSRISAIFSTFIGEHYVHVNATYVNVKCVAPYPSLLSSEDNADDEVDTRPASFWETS
Chain of JAK2 (O60674 whole entry): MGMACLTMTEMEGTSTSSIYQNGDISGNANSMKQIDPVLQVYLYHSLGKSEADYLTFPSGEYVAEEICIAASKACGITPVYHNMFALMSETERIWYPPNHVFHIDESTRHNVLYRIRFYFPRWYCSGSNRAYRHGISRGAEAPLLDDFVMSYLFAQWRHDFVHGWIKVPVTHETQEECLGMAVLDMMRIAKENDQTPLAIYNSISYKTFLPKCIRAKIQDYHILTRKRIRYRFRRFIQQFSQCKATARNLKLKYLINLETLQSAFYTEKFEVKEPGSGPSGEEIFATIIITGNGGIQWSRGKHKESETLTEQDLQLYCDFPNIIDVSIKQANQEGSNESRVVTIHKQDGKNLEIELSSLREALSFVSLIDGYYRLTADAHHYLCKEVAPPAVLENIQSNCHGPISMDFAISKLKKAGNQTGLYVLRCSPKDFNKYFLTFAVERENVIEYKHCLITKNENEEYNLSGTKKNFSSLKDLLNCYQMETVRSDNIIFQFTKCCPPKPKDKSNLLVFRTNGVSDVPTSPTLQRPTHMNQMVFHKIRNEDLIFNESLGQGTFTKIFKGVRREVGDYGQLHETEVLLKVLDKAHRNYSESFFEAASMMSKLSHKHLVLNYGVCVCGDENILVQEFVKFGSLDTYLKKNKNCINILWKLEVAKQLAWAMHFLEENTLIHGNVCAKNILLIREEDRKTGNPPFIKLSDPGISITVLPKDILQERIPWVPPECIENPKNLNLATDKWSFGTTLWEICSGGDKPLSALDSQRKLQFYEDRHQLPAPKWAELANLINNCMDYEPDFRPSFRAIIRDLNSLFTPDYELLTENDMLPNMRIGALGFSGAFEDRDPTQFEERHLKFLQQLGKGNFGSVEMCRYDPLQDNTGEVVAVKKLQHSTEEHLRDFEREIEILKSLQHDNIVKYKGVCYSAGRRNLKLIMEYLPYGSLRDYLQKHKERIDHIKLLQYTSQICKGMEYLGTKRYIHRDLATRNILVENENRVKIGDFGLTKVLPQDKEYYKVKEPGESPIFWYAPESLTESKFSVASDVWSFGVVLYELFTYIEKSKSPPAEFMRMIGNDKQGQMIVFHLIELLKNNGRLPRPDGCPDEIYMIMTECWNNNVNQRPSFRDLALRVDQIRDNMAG

As to `O=C(c1ccc(F)nc1)N1CCC[C@H]1c1nc(Nc2cc(C3CC3)[nH]n2)c2cccn2n1` [Example 1, (S)-(2-(4-(5-Cyclopropyl-1H-pyrazol-3-ylamino)pyrrolo[1,2-f][1,2,4]triazin-2-yl)pyrrolidin-1-yl)(6-fluoropyridin-3-yl)methanone], the IC50 was 28 nM in test [1], 1870 nM in test [2], 29 nM in test [3] and 290 nM in test [4].
Take `O=C(c1nccs1)N1CCC[C@H]1c1nc(Nc2cc(C3CC3)[nH]n2)c2cccn2n1` [Example 2, (S)-(2-(4-(5-Cyclopropyl-1H-pyrazol-3-ylamino)pyrrolo[1,2-f][1,2,4]triazin-2-yl)pyrrolidin-1-yl)(thiazol-2-yl)methanone]: the IC50 in test [5] amounted to 5 nM; in test [1], 170 nM; in test [2], 88 nM; in test [3], 1 nM; in test [4], 24 nM.
For `CC(=O)N1CCC[C@H]1c1nc(Nc2cc(C3CC3)[nH]n2)c2cccn2n1` [Example 4, (S)-1-(2-(4-(5-Cyclopropyl-1H-pyrazol-3-ylamino)pyrrolo[1,2-f][1,2,4]-triazin-2-yl)pyrrolidin-1-yl)ethanone] the same measures were 135 nM, 1780 nM, 5 nM, 1 nM and 20 nM.
Regarding `CC(C)(C)OC(=O)N1CCC(C(=O)N2CCC[C@@H]2c2nc(Nc3cc(C4CC4)[nH]n3)c3cccn3n2)CC1` [Example 13, (R)-tert-Butyl 4-(2-(4-(5-cyclopropyl-1H-pyrazol-3-ylamino)pyrrolo[1,2-f][1,2,4]triazin-2-yl)pyrrolidine-1-carbonyl)piperidine-1-carboxylate], the IC50 in test [5] is 314 nM; in test [2] it was 17400 nM; in test [6], 22000 nM; in test [3], 308 nM; in test [4], 4450 nM.

In general, IC50 refers to the concentration at which inhibition is half-maximal.
